Converted amounts (≈) assume the structure as drawn.
How the values were obtained:
[1] = tested on: Pseudomonas aeruginosa strain ATCC 27317; assay: Biological activity testing of eluates and antibiotic dilutions, growth in TSB, A530; type: cell-based; conditions: P. aeruginosa ATCC 27317, observed
Description: Pseudomonas aeruginosa strain ATCC 27317 was used for biological activity testing of AmikacinTM and GentamicinTM eluates. A clinical isolate of Staphylococcus aureus Cowan I strain was used to assess activity of VancomycinTM eluates. The eluate having the lowest concentration for each antibiotic at each of the specified time points was used in the biological activity assay. P. aeruginosa or S. aureus was grown overnight at 37° C. in Trypticase soy broth (TSB). Conical tubes were prepared with 1.75 ml of TSB and 200 μl of antibiotic dilutions (AmikacinTM: 0-640 μg/ml, GentamicinTM: 0-2560 μg/ml, VancomycinTM: 0-160 μg/ml), or 200 μl eluate samples, or 200 μl buffer. All tubes except blanks were inoculated with 50 μl of 1:50 dilution of bacteria. Blanks were supplanted with an additional 50 μl of TSB instead of bacteria. The tubes were vortexed and incubated at 37° C. for 24 hours. A blank was used to adjust the spectrophotometer to zero, and the absorbance at 530 nm ([…]) was recorded. Results were reported as percent growth relative to control, calculated as ([…] sample/[…] control)×100. This method dilutes the sample concentration by a factor of 10. Testing was repeated for three replicates of the samples.

[2] = Elution of antibiotic from pellets or flakes into PBS at 37° C., Fluorescence Polarization Immunoassay; type: physicochemical; conditions: from rapidly resorbing pellets loaded with 4% antibiotic, FIG. 2
Description: Elution was characterized by placing groups of eight pellets or the flakes of eight pellets (n≧3) in 20 ml phosphate buffered saline (PBS) in a 37° C. water bath. At specified times (t=1, 4, 8, 12, 24, 36, 48, 72, 96, 120, 144, 168, 240 hours), aliquots were removed and frozen at -40° C. At each time interval, the pellets were removed and placed in 20 ml fresh PBS. The amount of antibiotic in the eluates was determined (μg/ml) using a Florescence Polarization Immunoassay ([…], Abbott Laboratories, Abbott Park, Ill.). Testing was repeated for three batches of pellets.

Compound | MIC ([1]; Pseudomonas aeruginosa, ATCC27317, read-out: minimum inhibitory concentration (MIC)) | Elution profile (qualitative) [2] | minimum inhibitory concentration (MIC) [1]
NCC[C@H](O)C(=O)N[C@@H]1C[C@H](N)[C@@H](O[C@H]2O[C@H](CN)[C@@H](O)[C@H](O)[C@H]2O)[C@H](O)[C@H]1O[C@H]1O[C@H](CO)[C@@H](O)[C@H](N)[C@H]1O [Amikacin™, Amikacin] | 4 µg/mL (≈ 6.83 µM) | peak at hour one and decrease exponentially | 
CN[C@H](CC(C)C)C(=O)N[C@H]1C(=O)N[C@@H](CC(N)=O)C(=O)N[C@H]2C(=O)N[C@H]3C(=O)N[C@H](C(=O)N[C@H](C(=O)O)c4cc(O)cc(O)c4-c4cc3ccc4O)[C@H](O)c3ccc(c(Cl)c3)Oc3cc2cc(c3O[C@@H]2O[C@H](CO)[C@@H](O)[C@H](O)[C@H]2O[C@H]2C[C@](C)(N)[C@H](O)[C@H](C)O2)Oc2ccc(cc2Cl)[C@H]1O [Vancomycin™, Vancomycin] |  | burst of antibiotic in hour one | 
Gentamicin [Gentamicin™] |  | peak at hour one and decrease exponentially | 4.0 µg/mL

Source: patent US7923021B2, “Local delivery method and composition” (University of Memphis Research Foundation, priority 2007, dated 2011)
